Data reported in patent publication US12077503B2, “Substituted cyclic amides and their use as herbicides” (FMC CORPORATION, priority 2015, dated 2024).

Experiments:
Format in all cases: in vivo
Kochia (Kochia scoparia) [1] = experiment: Test A preemergence; settings: Bassia scoparia, pre-emergence, 240 h; for pest or weed control at 125 g/ha: 125 g ai/ha, Preemergence, visual injury rating after approximately 10 d, read-out: Kochia plant response rating (0 to 100 scale, 0 is no effect, 100 is complete control); for pest or weed control at 500 g/ha: 500 g ai/ha, preemergence, visual injury rating about 10 d after treatment, 0 to 100 scale (0 no effect, 100 complete control), read-out: Kochia plant response rating
Procedure, shortened: (§1)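 Each rating is a visual injury score from 0 to 100 given about 10 d after treatment, judged against untreated controls kept alongside in the greenhouse. In loam soil–sand blend, seeds got a preemergence directed soil spray, while postemergence plants were 2 to 10 cm tall at spraying.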

[2] = test system: barnyardgrass (Echinochloa crus-galli); experiment: Test A preemergence; settings: Echinochloa crus-galli, pre-emergence, 240 h; for pest or weed control at 125 g/ha: 125 g ai/ha, Preemergence, visual injury rating after approximately 10 d, read-out: Barnyardgrass plant response rating (0 to 100 scale, 0 is no effect, 100 is complete control); for pest or weed control at 500 g/ha: 500 g ai/ha, preemergence, visual injury rating about 10 d after treatment, 0 to 100 scale (0 no effect, 100 complete control), read-out: Barnyardgrass plant response rating
Procedure, shortened: as §1

[3] = test system: giant foxtail (Setaria faberii); experiment: Test A preemergence; settings: Setaria faberi, pre-emergence, 240 h; for pest or weed control at 125 g/ha: 125 g ai/ha, Preemergence, visual injury rating after approximately 10 d, read-out: Foxtail, Giant plant response rating (0 to 100 scale, 0 is no effect, 100 is complete control); for pest or weed control at 500 g/ha: 500 g ai/ha, preemergence, visual injury rating about 10 d after treatment, 0 to 100 scale (0 no effect, 100 complete control), read-out: Foxtail, Giant plant response rating
Procedure, shortened: as §1

[4] = test system: pigweed (Amaranthus retroflexus); experiment: Test A preemergence; settings: Amaranthus retroflexus, pre-emergence, 240 h; for pest or weed control at 125 g/ha: 125 g ai/ha, Preemergence, visual injury rating after approximately 10 d, read-out: Pigweed plant response rating (0 to 100 scale, 0 is no effect, 100 is complete control); for pest or weed control at 500 g/ha: 500 g ai/ha, preemergence, visual injury rating about 10 d after treatment, 0 to 100 scale (0 no effect, 100 complete control), read-out: Pigweed plant response rating
[5] = test system: ragweed (common ragweed, Ambrosia elatior); experiment: Test A preemergence; settings: Ambrosia artemisiifolia, pre-emergence, 240 h; for pest or weed control at 125 g/ha: 125 g ai/ha, Preemergence, visual injury rating after approximately 10 d, read-out: Ragweed plant response rating (0 to 100 scale, 0 is no effect, 100 is complete control); for pest or weed control at 500 g/ha: 500 g ai/ha, preemergence, visual injury rating about 10 d after treatment, 0 to 100 scale (0 no effect, 100 complete control), read-out: Ragweed plant response rating
Procedure, shortened: as §1

[6] = test system: ryegrass, Italian (Italian ryegrass, Lolium multiflorum); experiment: Test A preemergence; settings: Lolium multiflorum, pre-emergence, 240 h; for pest or weed control at 125 g/ha: 125 g ai/ha, Preemergence, visual injury rating after approximately 10 d, read-out: Ryegrass, Italian plant response rating (0 to 100 scale, 0 is no effect, 100 is complete control); for pest or weed control at 500 g/ha: 500 g ai/ha, preemergence, visual injury rating about 10 d after treatment, 0 to 100 scale (0 no effect, 100 complete control), read-out: Ryegrass, Italian plant response rating
Procedure, shortened: as §1

[7] = test system: Galium (catchweed bedstraw, Galium aparine); experiment: Test A postemergence; settings: Galium, post-emergence, 240 h, 125 g ai/ha, Postemergence; visual injury after approximately 10 d; 0 to 100 scale where 0 is no effect and 100 is complete control; read-out: Plant response rating, Galium
Procedure, shortened: as §1

Kochia (Kochia scoparia) [8] = experiment: Test A postemergence; settings: Bassia scoparia, post-emergence, 240 h, 125 g ai/ha, Postemergence; visual injury after approximately 10 d; 0 to 100 scale where 0 is no effect and 100 is complete control; read-out: Plant response rating, Kochia
Procedure, shortened: as §1

[9] = test system: barnyardgrass (Echinochloa crus-galli); experiment: Test A postemergence; settings: Echinochloa crus-galli, post-emergence, 240 h, 125 g ai/ha, Postemergence; visual injury after approximately 10 d; 0 to 100 scale where 0 is no effect and 100 is complete control; read-out: Plant response rating, Barnyardgrass
Procedure, shortened: as §1

[10] = test system: blackgrass (Alopecurus myosuroides); experiment: Test A postemergence; settings: Alopecurus myosuroides, post-emergence, 240 h, 125 g ai/ha, Postemergence; visual injury after approximately 10 d; 0 to 100 scale where 0 is no effect and 100 is complete control; read-out: Plant response rating, Blackgrass
Procedure, shortened: as §1

corn (Zea mays) = experiment: Test A postemergence; settings: Zea mays, post-emergence, 240 h, 125 g ai/ha, Postemergence; visual injury after approximately 10 d; 0 to 100 scale where 0 is no effect and 100 is complete control
Procedure, shortened: as §1

[11] = test system: giant foxtail (Setaria faberii); experiment: Test A postemergence; settings: Setaria faberi, post-emergence, 240 h, 125 g ai/ha, Postemergence; visual injury after approximately 10 d; 0 to 100 scale where 0 is no effect and 100 is complete control; read-out: Plant response rating, Foxtail, Giant
Procedure, shortened: as §1

[12] = test system: pigweed (Amaranthus retroflexus); experiment: Test A postemergence; settings: Amaranthus retroflexus, post-emergence, 240 h, 125 g ai/ha, Postemergence; visual injury after approximately 10 d; 0 to 100 scale where 0 is no effect and 100 is complete control; read-out: Plant response rating, Pigweed
Procedure, shortened: as §1

[13] = test system: ragweed (common ragweed, Ambrosia elatior); experiment: Test A postemergence; settings: Ambrosia artemisiifolia, post-emergence, 240 h, 125 g ai/ha, Postemergence; visual injury after approximately 10 d; 0 to 100 scale where 0 is no effect and 100 is complete control; read-out: Plant response rating, Ragweed
Procedure, shortened: as §1

[14] = test system: ryegrass, Italian (Italian ryegrass, Lolium multiflorum); experiment: Test A postemergence; settings: Lolium multiflorum, post-emergence, 240 h, 125 g ai/ha, Postemergence; visual injury after approximately 10 d; 0 to 100 scale where 0 is no effect and 100 is complete control; read-out: Plant response rating, Ryegrass, Italian
Procedure, shortened: as §1

[15] = test system: wheat (Triticum aestivum); experiment: Test A postemergence; settings: Triticum aestivum, post-emergence, 240 h, 125 g ai/ha, Postemergence; visual injury after approximately 10 d; 0 to 100 scale where 0 is no effect and 100 is complete control; read-out: Plant response rating, Wheat
Procedure, shortened: as §1

[16] = test system: barnyardgrass (Echinochloa crus-galli); experiment: Test B flooded paddy test; settings: Echinochloa crus-galli, Flood, 250 g ai/ha; scale of 0 to 100 where 0 is no effect and 100 is complete control; read-out: Barnyardgrass plant response rating
Procedure, shortened: (§2)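 Compound goes directly into floodwater once pots are flooded 3 cm above soil, targeting plants at two leaves; the water depth is then held for the test duration. Plants sit 13–15 d in a greenhouse and are rated visually, 100 denoting complete control.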

[17] = test system: ducksalad (Heteranthera limosa); experiment: Test B flooded paddy test; settings: Heteranthera limosa, Flood, 250 g ai/ha; scale of 0 to 100 where 0 is no effect and 100 is complete control; read-out: Ducksalad plant response rating
Procedure, shortened: as §2

rice (Oryra sativa) = experiment: Test B flooded paddy test; settings: Oryza sativa, Flood, 250 g ai/ha; scale of 0 to 100 where 0 is no effect and 100 is complete control; read-out: Rice plant response rating
Procedure, shortened: as §2

[18] = test system: sedge, umbrella (small-flower umbrella sedge, Cyperus difformis); experiment: Test B flooded paddy test; settings: Cyperus difformis, Flood, 250 g ai/ha; scale of 0 to 100 where 0 is no effect and 100 is complete control; read-out: Sedge, Umbrella plant response rating
Procedure, shortened: as §2

SMILES	pest or weed control at 125 g/ha (Kochia (Kochia scoparia) [1])	pest or weed control at 500 g/ha (Kochia (Kochia scoparia) [1])	pest or weed control at 125 g/ha [2]	pest or weed control at 500 g/ha [2]	pest or weed control at 125 g/ha [3]	pest or weed control at 500 g/ha [3]	pest or weed control at 125 g/ha [4]	pest or weed control at 500 g/ha [4]	pest or weed control at 125 g/ha [5]	pest or weed control at 500 g/ha [5]	pest or weed control at 125 g/ha [6]	pest or weed control at 500 g/ha [6]	pest or weed control at 125 g/ha [7]	pest or weed control at 125 g/ha (Kochia (Kochia scoparia) [8])	pest or weed control at 125 g/ha [9]	pest or weed control at 125 g/ha [10]	Corn plant response rating (crop injury, 0 = no effect, 100 = complete kill) at 125 g/ha (corn (Zea mays))	pest or weed control at 125 g/ha [11]	pest or weed control at 125 g/ha [12]	pest or weed control at 125 g/ha [13]	also measured
O=C1NC[C@H](c2cc(C(F)(F)F)cs2)[C@H]1C(=O)Nc1ccccc1F [Compound 960]	20%	30%	80%	90%	70%	90%	0%	0%	0%	0%	0%	0%	0%	0%	50%	20%	0%	20%	0%	0%	pest or weed control at 125 g/ha [14]: 30%; plant injury at 125 g/ha [15]: 0%; pest or weed control at 250 g/ha [16]: 20%; pest or weed control at 250 g/ha [17]: 100%; pest or weed control at 250 g/ha (rice (Oryra sativa)): 0%; pest or weed control at 250 g/ha [18]: 65%
CCc1cc(CC)cc([C@H]2CNC(=O)[C@@H]2C(=O)Nc2ccccc2C(F)(F)F)c1 [Compound 969]	0%	0%	50%	80%	90%	90%	0%	0%	0%	0%	40%	30%	20%	0%	50%	0%	50%	50%	0%	0%	pest or weed control at 125 g/ha [14]: 20%; plant injury at 125 g/ha [15]: 30%; pest or weed control at 250 g/ha [16]: 0%; pest or weed control at 250 g/ha [17]: 0%; pest or weed control at 250 g/ha (rice (Oryra sativa)): 0%; pest or weed control at 250 g/ha [18]: 0%
